# Assay results from patent publication US20250320213A1, “Nitrogen-Containing Heterocyclic Compounds” (Pfizer Inc., priority 2024, published 2025).
# Biological target: T1, STAT6 (Homo sapiens, UniProt P42226)
# T1 construct: stably transfected HaCaT keratinocyte cell line, which expresses NanoLuc luciferase reporter gene under the transcriptional control of the STAT6 responsive promoter; endogenous in cells; host or cells: HaCaT keratinocyte reporter cell line (stably transfected with a NanoLuc reporter)
# T1 sequence (P42226 1-847): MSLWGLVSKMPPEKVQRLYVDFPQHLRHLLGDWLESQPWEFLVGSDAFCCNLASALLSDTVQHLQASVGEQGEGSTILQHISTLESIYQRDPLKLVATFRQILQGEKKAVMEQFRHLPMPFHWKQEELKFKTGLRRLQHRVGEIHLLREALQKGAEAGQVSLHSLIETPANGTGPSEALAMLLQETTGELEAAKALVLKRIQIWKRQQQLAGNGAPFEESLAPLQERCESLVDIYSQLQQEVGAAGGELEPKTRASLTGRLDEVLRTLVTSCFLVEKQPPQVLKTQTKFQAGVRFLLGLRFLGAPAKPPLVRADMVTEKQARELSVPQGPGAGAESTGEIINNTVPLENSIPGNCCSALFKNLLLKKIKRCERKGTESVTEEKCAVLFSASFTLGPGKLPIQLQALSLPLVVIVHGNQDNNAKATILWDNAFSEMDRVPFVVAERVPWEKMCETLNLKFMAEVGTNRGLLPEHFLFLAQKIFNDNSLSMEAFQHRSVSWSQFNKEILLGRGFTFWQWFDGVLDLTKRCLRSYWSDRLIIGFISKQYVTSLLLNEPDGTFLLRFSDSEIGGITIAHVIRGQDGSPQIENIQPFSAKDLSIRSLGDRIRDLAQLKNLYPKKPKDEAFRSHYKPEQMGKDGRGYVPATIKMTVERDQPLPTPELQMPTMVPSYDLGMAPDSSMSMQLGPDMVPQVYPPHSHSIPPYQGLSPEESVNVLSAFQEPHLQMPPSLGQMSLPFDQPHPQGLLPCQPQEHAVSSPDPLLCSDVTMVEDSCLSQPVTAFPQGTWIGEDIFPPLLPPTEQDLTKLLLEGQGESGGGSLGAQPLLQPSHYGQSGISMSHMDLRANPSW
# Assay: STAT6 Reporter Luciferase Assay (IL-13 stimulated HaCaT keratinocyte NanoLuc reporter cells)
# Type: cell-based
# Conditions: IL-13 stimulated HaCaT STAT6 NanoLuc reporter cells; read-out: Reporter EC50
# Experimental: Pharmacological measurements of STAT6 transcriptional activity through the IL-13-IL-13 receptor/IL-4 receptor pathway were made with a stably transfected HaCaT keratinocyte cell line, which expresses NanoLuc luciferase reporter gene under the transcriptional control of the STAT6 responsive promoter for IL-13Ra2. The readout of the STAT6 activity utilized Promega Nano-Glo Luciferase assay kit.
# The reporter cells were cultured in a growth media comprised of DMEM High Glucose, no calcium and no glutamine, 10% heat inactivated fetal bovine serum (HI FBS), 1% 100× Glutamax, and 100 U/mL Penicillin-Streptomycin (units of penicillin in 1 mL of streptomycin). Seven thousand cells were plated in 25 microliter (μL) per well in a 384-well, white bottom, tissue culture plate. Cells were cultured overnight at 37° C. The next day, test compounds (solubilized and serially diluted in DMSO, in an 11 point, 4-fold dilution series in duplicate) were spotted, 60 nanoliters (nL) per well, into a 384 well v-bottom polypropylene plate. Thirty μL per well of 37° C. dosing media (Dulbecco's modified eagle medium (DMEM) High Glucose, no calcium and no glutamine with 2% HI FBS) was added to the compound plate. Growth media was removed from the cell plate, and the cells were washed with DPBS. Twenty μL per well of compounds diluted in dosing media were transferred from the compound plate to the cell plate and the compounds were further diluted with an additional 15 μL of dosing media in the cell plate: the cell plate was incubated for two hours at 37° C. After two hours, STAT6 activity was stimulated with the addition of 5 μL per well of IL-13 (R&D Systems) in dosing media with a final concentration of 0.12 nM IL13. Cells were incubated at 37° C. for 4 hours to allow for reporter gene expression, then all media was removed from the plate. The cell plates were treated with assay buffer and Luciferase substrate from Nano-Glo Luciferase Assay Kit for 15 min and then measured for luminescence on an EnVision 2105 multilabel reader (PerkinElmer).
row,SMILES,EC50
1,"COCC1CCN(C(=O)c2ccc(N3CCc4c(c(C(=O)NCc5ccc(NC(=O)N(C)C)cc5)nn4C(C)C)C3)nc2)C1 (racemic) [Example 194, rac-(R)-N-(4-(3,3-dimethylureido)benzyl)-1-isopropyl-5-(5-(3-(methoxymethyl)pyrrolidine-1-carbonyl)pyridin-2-yl)-4,5,6,7-tetrahydro-1H-pyrazolo[4,3-c]pyridine-3-carboxamide]",401 nM
2,"CC(C)n1nc(C(=O)NCc2ccc(NC(=O)N(C)C)cc2)c2c1CCN(c1ccc(C(=O)N3CCC(C)(O)C3)cn1)C2 (racemic) [Example 219, rac-(R)-N-(4-(3,3-dimethylureido)benzyl)-5-(5-(3-hydroxy-3-methylpyrrolidine-1-carbonyl)pyridin-2-yl)-1-isopropyl-4,5,6,7-tetrahydro-1H-pyrazolo[4,3-c]pyridine-3-carboxamide]",1310 nM
3,"CC(C)n1nc(C(=O)NCc2ccc(NC(=O)N(C)C)cc2)c2c1CCN(c1ccc(C(=O)N3C[C@@H]4OC(=O)N[C@@H]4C3)cn1)C2 (racemic) [Example 290, rac-N-(4-(3,3-dimethylureido)benzyl)-1-isopropyl-5-(5-((3aR,6aS)-2-oxohexahydro-2H-pyrrolo[3,4-d]oxazole-5-carbonyl)pyridin-2-yl)-4,5,6,7-tetrahydro-1H-pyrazolo[4,3-c]pyridine-3-carboxamide]",1410 nM
4,"CC(C)n1nc(C(=O)NCc2ccc(NC(=O)N(C)C)cc2)c2c1CCN(c1ccc(C(=O)N3C[C@H]4CCO[C@H]4C3)cn1)C2 (racemic) [Example 331, rac-N-(4-(3,3-dimethylureido)benzyl)-5-(5-((3aR,6aR)-hexahydro-2H-furo[2,3-c]pyrrole-5-carbonyl)pyridin-2-yl)-1-isopropyl-4,5,6,7-tetrahydro-1H-pyrazolo[4,3-c]pyridine-3-carboxamide]",606 nM
5,"CO[C@@H]1CN(C(=O)c2ccc(N3CCc4c(c(C(=O)NCc5ccc(NC(=O)N(C)C)cc5)nn4C(C)C)C3)nc2)C[C@H]1OC (racemic) [Example 333, rac-5-(5-((3R,4R)-3,4-dimethoxypyrrolidine-1-carbonyl)pyridin-2-yl)-N-(4-(3,3-dimethylureido)benzyl)-1-isopropyl-4,5,6,7-tetrahydro-1H-pyrazolo[4,3-c]pyridine-3-carboxamide]",2800 nM
6,"CC(C)n1nc(C(=O)NCc2ccc(NC(=O)N(C)C)cc2)c2c1CCN(c1ccc(C(=O)N3C[C@@H]4OC(=O)N(C)[C@@H]4C3)cn1)C2 (racemic) [Example 334, rac-N-(4-(3,3-dimethylureido)benzyl)-1-isopropyl-5-(5-((3aR,6aS)-3-methyl-2-oxohexahydro-2H-pyrrolo[3,4-d]oxazole-5-carbonyl)pyridin-2-yl)-4,5,6,7-tetrahydro-1H-pyrazolo[4,3-c]pyridine-3-carboxamide]",176 nM
7,"CC(C)n1nc(C(=O)NCc2ccc(NC(=O)N3CCN(C)CC3)cc2)c2c1C(C(F)(F)F)CN(c1ccc(C(=O)N(C)C)cn1)C2 (racemic) [Example 701, rac-(R)-5-(5-(dimethylcarbamoyl)pyridin-2-yl)-1-isopropyl-N-(4-(4-methylpiperazine-1-carboxamido)benzyl)-7-(trifluoromethyl)-4,5,6,7-tetrahydro-1H-pyrazolo[4,3-c]pyridine-3-carboxamide]",0.4 nM
8,"CC(C)n1nc(C(=O)NCc2ccc(NC(=O)N3CCN(C)CC3)cc2)c2c1C(C(F)(F)F)CN(c1ccc(C(=O)N(C)C)cc1)C2 (racemic) [Example 703, rac-(R)-5-(4-(dimethylcarbamoyl)phenyl)-1-isopropyl-N-(4-(4-methylpiperazine-1-carboxamido)benzyl)-7-(trifluoromethyl)-4,5,6,7-tetrahydro-1H-pyrazolo[4,3-c]pyridine-3-carboxamide]",1 nM

# Now from value to compound:
row,EC50,SMILES
1,210 nM,"CC(C)n1nc(C(=O)NCc2ccc(NC(=O)N(C)C)cc2)c2c1CCN(c1ccc(C(=O)N3CCC(O)C3)cn1)C2 (racemic) [Example 198, rac-(R)-N-(4-(3,3-dimethylureido)benzyl)-5-(5-(3-hydroxypyrrolidine-1-carbonyl)pyridin-2-yl)-1-isopropyl-4,5,6,7-tetrahydro-1H-pyrazolo[4,3-c]pyridine-3-carboxamide]"
2,535 nM,"CC(C)n1nc(C(=O)NCc2ccc(NC(=O)N(C)C)cc2)c2c1CCN(c1ccc(C(=O)N3CCCC3CO)cn1)C2 (racemic) [Example 208, rac-(R)-N-(4-(3,3-dimethylureido)benzyl)-5-(5-(2-(hydroxymethyl)pyrrolidine-1-carbonyl)pyridin-2-yl)-1-isopropyl-4,5,6,7-tetrahydro-1H-pyrazolo[4,3-c]pyridine-3-carboxamide]"
3,336 nM,"CC(C)n1nc(C(=O)NCc2ccc(NC(=O)N(C)C)cc2)c2c1CCN(c1ccc(C(=O)N3CCCC(O)C3)cn1)C2 (racemic) [Example 220, rac-(R)-N-(4-(3,3-dimethylureido)benzyl)-5-(5-(3-hydroxypiperidine-1-carbonyl)pyridin-2-yl)-1-isopropyl-4,5,6,7-tetrahydro-1H-pyrazolo[4,3-c]pyridine-3-carboxamide]"
4,2090 nM,"CNC(=O)C1CCCN1C(=O)c1ccc(N2CCc3c(c(C(=O)NCc4ccc(NC(=O)N(C)C)cc4)nn3C(C)C)C2)nc1 (racemic) [Example 245, rac-(R)-N-(4-(3,3-dimethylureido)benzyl)-1-isopropyl-5-(5-(2-(methylcarbamoyl)pyrrolidine-1-carbonyl)pyridin-2-yl)-4,5,6,7-tetrahydro-1H-pyrazolo[4,3-c]pyridine-3-carboxamide]"
5,1 nM,"CC(C)n1nc(C(=O)NCc2ccc(NC(=O)N3CCNCC3)cc2)c2c1C(C(F)(F)F)CN(c1ccc(C(=O)N(C)C)cc1)C2 (racemic) [Example 704, rac-(R)-5-(4-(dimethylcarbamoyl)phenyl)-1-isopropyl-N-(4-(piperazine-1-carboxamido)benzyl)-7-(trifluoromethyl)-4,5,6,7-tetrahydro-1H-pyrazolo[4,3-c]pyridine-3-carboxamide]"
6,1 nM,"COCCC1(N)CCN(C(=O)Nc2ccc(CNC(=O)c3nn(C(C)C)c4c3CN(c3ccc(C(=O)N(C)C)cc3)C[C@@H]4C)cc2)C1 (single isomer, unassigned) [Example 670, (S)-N-(4-((R*)-3-amino-3-(2-methoxyethyl)pyrrolidine-1-carboxamido)benzyl)-5-(4-(dimethylcarbamoyl)phenyl)-1-isopropyl-7-methyl-4,5,6,7-tetrahydro-1H-pyrazolo[4,3-c]pyridine-3-carboxamide]"

# Same assay, conditions: STAT6 NanoLuc luciferase reporter, IL-13 stimulated HaCaT keratinocyte cells; read-out: Reporter EC50
row,EC50,SMILES
1,11 nM,"CC(C)n1nc(C(=O)NCc2ccc(NC(=O)N3C[C@H]4CC[C@@H]3C4)cc2)c2c1CCN(c1ccc(C(=O)N(C)C)cn1)C2 (racemic) [Example 143, rac-N-(4-((1R,4S)-2-azabicyclo[2.2.1]heptane-2-carboxamido)benzyl)-5-(5-(dimethylcarbamoyl)pyridin-2-yl)-1-isopropyl-4,5,6,7-tetrahydro-1H-pyrazolo[4,3-c]pyridine-3-carboxamide]"
2,6 nM,"CC(C)n1nc(C(=O)NCc2ccc(NC(=O)N3CCC(C(F)F)C3)cc2)c2c1CCN(c1ccc(C(=O)N(C)C)cn1)C2 (racemic) [Example 145, rac-(R)-N-(4-(3-(difluoromethyl)pyrrolidine-1-carboxamido)benzyl)-5-(5-(dimethylcarbamoyl)pyridin-2-yl)-1-isopropyl-4,5,6,7-tetrahydro-1H-pyrazolo[4,3-c]pyridine-3-carboxamide]"
